From PMC6968775, “Assessment of contribution of BCRP to intestinal absorption of various drugs using portal‐systemic blood concentration difference model in mice” (Pharmacology Research & Perspectives, 2020)

Experiments:
P‐gp [1] = settings: Caco‐2 permeability study; unpublished data; ref Fujita et al, manuscript in preparation; cited from earlier work
[2] = Pharmacokinetics after iv and oral administration, P‐S difference method, Bcrp(−/−) mice; type: in vivo
Method: (§1) Male Mdr1a/1b(−/−) and Bcrp(−/−) mice, and WT mice of the same genetic background (FVB) were obtained from Taconic Farms (Germantown, NY, USA). […] Food and water were available ad libitum. All experiments were carried out in accordance with the principles and procedures outlined in the National Institutes of Health Guide for the Care and Use of Laboratory.
(§2) All the mice were fasted overnight with free access to tap water. In the intravenous administration studies, model compounds were administered via the tail vein at doses of 1 mg/kg (n = 3). Following administration, blood samples were collected from the abdominal vein of the anesthetized mice at 0.083, 0.17, 0.5, 1, 2, 4, and 8 hours. […] Following administration, blood samples were taken from the portal and abdominal veins of the anesthetized mice at 0.083, 0.17, 0.5, 1, 2, 4, and 8 hours. The plasma samples were separated by centrifugation at 14 000g for 10 minutes at 4°C and stored at −30°C until analysis.
(§3) After organic layer was evaporated at 60°C, the resultant residues were dissolved in a mobile phase. For the determination of topotecan and sulfasalazine, plasma samples were mixed with acetonitrile, centrifuged at 750 g for 10 minutes at 4°C, and the supernatants were collected. After the evaporation of the supernatants, the residues were dissolved in a mobile phase, and acidified with phosphoric acid for topotecan. All drugs were analyzed by HPLC system (Shimadzu LC‐10AS pump, Shimadzu SIL‐10A autosampler) equipped with a reverse‐phase column (COSMOSIL 5C18‐AR‐II, 3.5‐μm […], 4.6 × 150 mm).
(§4) Elimination rate constant (k e) was determined by the least squares regression analysis of plasma concentration vs time curve. Elimination half‐life (t 1/2) was calculated using Eq.1:(1) t1/2=ln2/ke
(§5) Area under plasma concentration‐time curve (AUC) and area under the first moment curve (AUMC) from time 0 to infinity were calculated by trapezoidal rule.
(§6) Absorption rate constant (k a) after oral administration was calculated by the nonlinear least squares fitting with program MULTI.12
(§7) BA was calculated by Eq.5:(7) BA=AUCoral/AUCiv×Doseiv/Doseoral×100 where AUCoral is AUC after oral administration. Doseiv and Doseoral are administered dose in the intravenous and oral administration study, respectively.
(§8) Hepatic availability (F h) was calculated by Eq.6:(8) Fh=F/Fa×Fg

[3] = Blood/plasma concentration ratio (R b) in fresh whole blood; type: in vitro ADME, FVB mice; settings: fresh whole blood, FVB mouse whole blood, 37°C
Method: Similarly, the model compounds were added to plasma, and reference blood samples were obtained according to the same procedure. These concentrations of drugs in each sample were analyzed using HPLC (C B and C P, respectively). R b value was calculated by dividing C B by C P.

[4] = human; cited from earlier work
P‐gp [5] = settings: in vivo (mice); calculated from F a F g in WT, Bcrp(−/−) and Mdr1a/1b(−/−) mice (Eq. 12)
[6] = Pharmacokinetics after iv and oral administration, P‐S difference method, Mdr1a/1b(−/−) mice; type: in vivo
Method: as §1, §2, §3, §4, §5, §6, §7, §8

[7] = Pharmacokinetics after iv and oral administration, P‐S difference method, wild‐type mice; type: in vivo
Method: as §1, §2, §3, §4, §5, §6, §7, §8

[8] = Bcrp(−/−) mice, p.o. (ciprofloxacin 1, nitrofurantoin 2, topotecan 1, sulfasalazine 5 mg/kg)
[9] = Bcrp(−/−) mice, p.o. (ciprofloxacin 1, nitrofurantoin 2, topotecan 1, sulfasalazine 5 mg/kg), systemic (sys) plasma
[10] = Mdr1a/1b(−/−) mice, p.o. (ciprofloxacin 1, nitrofurantoin 2, topotecan 1, sulfasalazine 5 mg/kg)
[11] = male, Mdr1a/1b(−/−) (FVB background), mouse, systemic plasma (abdominal vein), po
[12] = wild‐type mice, p.o. (ciprofloxacin 1, nitrofurantoin 2, topotecan 1, sulfasalazine 5 mg/kg)
[13] = wild‐type mice, p.o. (ciprofloxacin 1, nitrofurantoin 2, topotecan 1, sulfasalazine 5 mg/kg), systemic (sys) plasma

In the case of O=C(O)c1cc(/N=N/c2ccc(S(=O)(=O)Nc3ccccn3)cc2)ccc1O [sulfasalazine, Sulfasalazine], the “AQp‐gp in vitro (Caco‐2)” value (P‐gp [1]) is given as 0.05, the F h [2, 8] is given as 73.2% and the k a [2, 8] is given as 0.49 h⁻¹. For the same compound, the BA ([2]; Bcrp(−/−) mice, p.o. (ciprofloxacin 1, nitrofurantoin 2, topotecan 1, sulfasalazine 5 mg/kg) vs iv 1 mg/kg) was 95.2%, the “AUC 0→∞ (AUCpv)” value ([2]; Bcrp(−/−) mice, p.o. (ciprofloxacin 1, nitrofurantoin 2, topotecan 1, sulfasalazine 5 mg/kg), portal vein (pv) plasma) was 290 000 nmol/L·h and the “AUC 0→∞ (AUCsys)” value [2, 9] was 288 000 nmol/L·h. The “t 1/2” value [2, 9] was 7.07 h, the “k a, bcrp” value ([2]; Table 5 summary, Bcrp(−/−) mice, oral administration) was 0.49 and the “(F a F g)bcrp” value ([2]; as fraction, Bcrp(−/−) mice, oral administration) was 1.30. It also gave a half-life ([2]; male, Bcrp(−/−) (FVB background), mouse, plasma, iv, 1 mg/kg, Bcrp(−/−) mice, iv 1 mg/kg) of 3.57 h, a Tmax ([2]; male, Bcrp(−/−) (FVB background), mouse, portal vein plasma, po) of 2 h and a Tmax ([2]; male, Bcrp(−/−) (FVB background), mouse, systemic plasma (abdominal vein), po) of 2 h. For the same compound, the AUC(0-inf) ([2]; male, FVB Bcrp(−/−), mouse, plasma (systemic, abdominal vein), iv, 1 mg/kg, Bcrp(−/−) mice, iv 1 mg/kg, read-out: AUC 0→∞) was 60.5 µM·h, the C0 ([2]; male, FVB Bcrp(−/−), mouse, plasma (systemic, abdominal vein), Bcrp(−/−) mice, intravenous injection 1 mg/kg, read-out: extrapolated plasma concentration at zero time (C 0)) was 18.1 µM and the clearance ([2]; male, FVB Bcrp(−/−), mouse, plasma (systemic, abdominal vein), Bcrp(−/−) mice, iv 1 mg/kg, read-out: CL tot (converted)) was 0.667 mL/min/kg. For the same compound, the Vd ([2]; male, FVB Bcrp(−/−), mouse, plasma (systemic, abdominal vein), Bcrp(−/−) mice, iv 1 mg/kg, read-out: Vdss) was 0.19 L/kg, the AUC(0-inf) ([2]; male, FVB Bcrp(−/−), mouse, portal vein plasma, po, Bcrp(−/−) mice, p.o. (ciprofloxacin 1, nitrofurantoin 2, topotecan 1, sulfasalazine 5 mg/kg), portal vein (pv) plasma, read-out: AUC 0→∞ (AUCpv)) was 290 µM·h and the half-life ([2]; male, FVB Bcrp(−/−), mouse, systemic plasma (abdominal vein), po, Bcrp(−/−) mice, p.o. (ciprofloxacin 1, nitrofurantoin 2, topotecan 1, sulfasalazine 5 mg/kg), systemic (sys) plasma) was 7 h. The AUC(0-inf) ([2]; male, FVB Bcrp(−/−), mouse, systemic plasma (abdominal vein), po, Bcrp(−/−) mice, p.o. (ciprofloxacin 1, nitrofurantoin 2, topotecan 1, sulfasalazine 5 mg/kg), systemic (sys) plasma, read-out: AUC 0→∞ (AUCsys)) was 288 µM·h, the “AUC pv and AUC sys after oral administration, Bcrp(−/−) mice vs WT mice” value ([2]; oral administration) was “more than 130 fold” and the blood plasma ratio at 15 min, 1 µg/mL [3] was 1.28 ± 0.03. For the same compound, the “AUC after oral administration, patients heterozygous variant for the BCRP SNP vs normal BCRP” value [4] was “approximately 2 fold”, the “human BA” value [4] was < 15% and the “human F a F g” value [4] was 12%. For the same compound, the “R P‐gp (rate of P‐gp contribution)” value (P‐gp [5]) was 0.09, the F h [6, 10] was 55.6% and the k a [6, 10] was 0.93 h⁻¹. For the same compound, the BA ([6]; Mdr1a/1b(−/−) mice, p.o. (ciprofloxacin 1, nitrofurantoin 2, topotecan 1, sulfasalazine 5 mg/kg) vs iv 1 mg/kg) was 11.5%, the “F a F g” value ([6]; Mdr1a/1b(−/−) mice, p.o. (ciprofloxacin 1, nitrofurantoin 2, topotecan 1, sulfasalazine 5 mg/kg), P‐S difference method) was 30% and the “k a, P‐gp” value ([6]; Table 5 summary, Mdr1a/1b(−/−) mice, oral administration) was 0.93. The “(F a F g)P‐gp” value ([6]; as fraction, Mdr1a/1b(−/−) mice, oral administration) was 0.30, the clearance ([6]; male, FVB Mdr1a/1b(−/−), mouse, plasma (systemic, abdominal vein), Mdr1a/1b(−/−) mice, iv 1 mg/kg, read-out: CL tot (converted)) was 9.83 mL/min/kg and the Vd ([6]; male, FVB Mdr1a/1b(−/−), mouse, plasma (systemic, abdominal vein), Mdr1a/1b(−/−) mice, iv 1 mg/kg, read-out: Vdss) was 0.45 L/kg. For the same compound, the half-life ([6]; male, Mdr1a/1b(−/−) (FVB background), mouse, plasma, Mdr1a/1b(−/−) mice, iv 1 mg/kg) was 1.63 h, the AUC(0-inf) ([6]; male, Mdr1a/1b(−/−) (FVB background), mouse, plasma, Mdr1a/1b(−/−) mice, iv 1 mg/kg, read-out: AUC 0→∞) was 4.28 µM·h and the Tmax ([6]; male, Mdr1a/1b(−/−) (FVB background), mouse, portal vein plasma, po) was 0.17 h. The Tmax [6, 11] was 0.5 h, the half-life [6, 11] was 1.11 h and the “k a, wt” value ([7]; Table 5 summary, WT mice, oral administration) was 1.40. The C0 ([7]; male, FVB (wild-type), mouse, plasma (systemic, abdominal vein), WT mice, intravenous injection 1 mg/kg, read-out: extrapolated plasma concentration at zero time (C 0)) was 11.7 µM, the clearance ([7]; male, FVB (wild-type), mouse, plasma (systemic, abdominal vein), wild‐type mice, iv 1 mg/kg, read-out: CL tot (converted)) was 11 mL/min/kg and the Vd ([7]; male, FVB (wild-type), mouse, plasma (systemic, abdominal vein), wild‐type mice, iv 1 mg/kg, read-out: Vdss) was 0.59 L/kg. The half-life ([7]; male, FVB (wild-type), mouse, plasma, iv, 1 mg/kg, wild‐type mice, iv 1 mg/kg) was 1.95 h, the AUC(0-inf) ([7]; male, FVB (wild-type), mouse, plasma, iv, 1 mg/kg, wild‐type mice, iv 1 mg/kg, read-out: AUC 0→∞) was 3.82 µM·h and the Tmax ([7]; male, FVB (wild-type), mouse, portal vein plasma, po) was 0.17 h. The AUC(0-inf) ([7]; male, FVB (wild-type), mouse, portal vein plasma, po, wild‐type mice, p.o. (ciprofloxacin 1, nitrofurantoin 2, topotecan 1, sulfasalazine 5 mg/kg), portal vein (pv) plasma, read-out: AUC 0→∞ (AUCpv)) was 2.2 µM·h, the Tmax ([7]; male, FVB (wild-type), mouse, systemic plasma (abdominal vein), po) was 0.5 h and the half-life ([7]; male, FVB (wild-type), mouse, systemic plasma (abdominal vein), po, wild‐type mice, p.o. (ciprofloxacin 1, nitrofurantoin 2, topotecan 1, sulfasalazine 5 mg/kg), systemic (sys) plasma) was 1 h. It also gave an AUC(0-inf) ([7]; male, FVB (wild-type), mouse, systemic plasma (abdominal vein), po, wild‐type mice, p.o. (ciprofloxacin 1, nitrofurantoin 2, topotecan 1, sulfasalazine 5 mg/kg), systemic (sys) plasma, read-out: AUC 0→∞ (AUCsys)) of 1.94 µM·h, a F h [7, 12] of 60.1% and a k a [7, 12] of 1.40 h⁻¹. For the same compound, the BA ([7]; wild‐type mice, p.o. (ciprofloxacin 1, nitrofurantoin 2, topotecan 1, sulfasalazine 5 mg/kg) vs iv 1 mg/kg) was 10.2%, the “F a F g” value ([7]; wild‐type mice, p.o. (ciprofloxacin 1, nitrofurantoin 2, topotecan 1, sulfasalazine 5 mg/kg), P‐S difference method) was 16.9% and the “AUC 0→∞ (AUCpv)” value ([7]; wild‐type mice, p.o. (ciprofloxacin 1, nitrofurantoin 2, topotecan 1, sulfasalazine 5 mg/kg), portal vein (pv) plasma) was 2.2 µM·h. The “AUC 0→∞ (AUCsys)” value [7, 13] was 1.94 µM·h and the “t 1/2” value [7, 13] was 1.11 h.
